# Data published in ChEMBL document CHEMBL1150008, “Synthesis and -lactamase inhibitory evaluation of novel 6-halo-2-chloromethyl-2-methylpenam-3-carboxylic acids and their sulfones and 6-halo-2-mercaptobenzothiazolylmethyl-2-methylpenam-3-carboxylic acids” (Bioorg Med Chem Lett, 1995).
# pIC50: −log10 of the molar value.
# Legend:
# Beta-lactamase 1 [1] = biological target: T1, Beta-lactamase 1 (Bacillus cereus, UniProt P00809); assay: Tested for the ability to inhibit Beta-lactamase of Bacillus cereus (class A enzyme) with 10 minutes pre-incubation
# T1 sequence (P00809 whole entry): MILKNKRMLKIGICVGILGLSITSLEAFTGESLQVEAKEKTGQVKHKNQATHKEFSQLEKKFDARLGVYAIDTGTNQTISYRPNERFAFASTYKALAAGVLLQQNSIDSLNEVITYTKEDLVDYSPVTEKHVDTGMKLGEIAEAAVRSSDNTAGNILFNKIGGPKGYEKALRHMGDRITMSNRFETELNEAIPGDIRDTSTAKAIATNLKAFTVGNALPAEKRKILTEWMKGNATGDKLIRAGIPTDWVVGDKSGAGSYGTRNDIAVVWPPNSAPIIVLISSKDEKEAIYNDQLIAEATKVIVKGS
# Beta-lactamase 1 [2] = biological target: T1, Beta-lactamase 1; assay: Inhibition of Beta-lactamase of Bacillus cereus (class A enzyme) without pre-incubation
SMILES,pIC50 (Beta-lactamase 1 [1]),pIC50 (Beta-lactamase 1 [2])
C[C@@]1(CSc2nc3ccccc3s2)S[C@@H]2[C@@H](Cl)C(=O)N2[C@H]1C(=O)O,< 2.30,< 2.30
C[C@@]1(CSc2nc3ccccc3s2)S[C@@H]2[C@@H](Br)C(=O)N2[C@H]1C(=O)O,< 2.30,< 2.30
C[C@]1(CCl)[C@H](C(=O)O)N2C(=O)[C@H](Cl)[C@H]2S1(=O)=O,4.15,3.35
CC1(C)[C@H](C(=O)O)N2C(=O)[C@H](Cl)[C@H]2S1(=O)=O,3.70,2.82
C[C@@]1(CSc2nc3ccccc3s2)S[C@@H]2[C@@H](F)C(=O)N2[C@H]1C(=O)O,< 2.30,< 2.30
C[C@]1(CCl)[C@H](C(=O)O)N2C(=O)C[C@H]2S1(=O)=O,3.52,3.60
C[C@]1(CCl)[C@H](C(=O)O)N2C(=O)[C@H](F)[C@H]2S1(=O)=O,< 2.52,< 2.52
C[C@]1(CCl)[C@H](C(=O)O)N2C(=O)[C@H](Br)[C@H]2S1(=O)=O,3.00,2.52
CC1(C)[C@H](C(=O)O)N2C(=O)C[C@H]2S1(=O)=O [SULBACTAM],4.60,4.60
